Test results from US6645983B1, “Pharmaceutical compositions comprising 4-quinolones for treating cancers” (Laboratoire L. Lafon, priority 1999, dated 2003).

Test system: SW1088
Assay: MTT test, cytotoxic activity on non-clonogenic cell lines
Assay type: cell-based
Details: Homo sapiens, 10^−5 M, 72 hours incubation, MTT, mean value, read-out: mean optical density, expressed as percentage relative to the mean optical density under the control condition (100%)
Method in brief: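 Human astrocytoma SW1088 cells seeded, grown 24 h at 37° C, 5% CO2, then exposed to compounds at 10^−5 to 10^−10 M versus solvent control. Viability by MTT reduction: 3 h MTT incubation, formazan dissolved in DMSO and read by spectrophotometry.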
`COc1ccc(-c2cn(C)c3cc(OC)cc(N4CCN(C)CC4)c3c2=O)cc1` [CRL8436, 7-Methoxy-3-(4-methoxyphenyl)-1-methyl-5-(1-methyl-piperazino)-1,4-dihydro-4-quinolinone] showed a viability at 10 µM of 102%.
Work on `CCN(CC)c1cc(OC)cc2c1c(=O)c(-c1ccc(OC)cc1)cn2C` [CRL8437, 5-Diethylamino-7-methoxy-3-(4-methoxyphenyl)-1-methyl-1,4-dihydro-4-quinolinone] yielded a viability at 10 µM of 99.7%.

Test system: J82
Assay: as above
Assay type: cell-based
Details: Homo sapiens, 10^−5 M, 72 hours incubation, MTT, mean value, read-out: mean optical density, expressed as percentage relative to the mean optical density under the control condition (100%)
Method in brief: (§1)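 Human bladder cancer lines were seeded at 20 000–50 000 cells/ml and, after 24 h, exposed to compounds at 10^−5 to 10^−10 M against a solvent control. Formazan was dissolved in DMSO and viability was read by spectrophotometric optical density.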
Molecule `COc1ccc(-c2cn(C)c3cc(OC)cc(N4CCN(C)CC4)c3c2=O)cc1` [CRL8436, 7-Methoxy-3-(4-methoxyphenyl)-1-methyl-5-(1-methyl-piperazino)-1,4-dihydro-4-quinolinone] has a viability at 10 µM of 101%.
`CCN(CC)c1cc(OC)cc2c1c(=O)c(-c1ccc(OC)cc1)cn2C` [CRL8437, 5-Diethylamino-7-methoxy-3-(4-methoxyphenyl)-1-methyl-1,4-dihydro-4-quinolinone] showed a viability at 10 µM of 98.7%.

Test system: T24
Assay: as above
Assay type: cell-based
Details: Homo sapiens, T-24; T24; 10^−5 M; 72 hours incubation; MTT; mean value; read-out: mean optical density, expressed as percentage relative to the mean optical density under the control condition (100%)
Method in brief: as §1
For `COc1ccc(-c2cn(C)c3cc(OC)cc(N4CCN(C)CC4)c3c2=O)cc1` [CRL8436, 7-Methoxy-3-(4-methoxyphenyl)-1-methyl-5-(1-methyl-piperazino)-1,4-dihydro-4-quinolinone], the viability at 10 µM was 99.2%.
Work on `CCN(CC)c1cc(OC)cc2c1c(=O)c(-c1ccc(OC)cc1)cn2C` [CRL8437, 5-Diethylamino-7-methoxy-3-(4-methoxyphenyl)-1-methyl-1,4-dihydro-4-quinolinone] yielded a viability at 10 µM of 93.1%.

Test system: U-373MG
Assay: as above
Assay type: cell-based
Details: Homo sapiens, U373 MG; U-373MG; 10^−5 M; 72 hours incubation; MTT; mean value; read-out: mean optical density, expressed as percentage relative to the mean optical density under the control condition (100%)
Method in brief: (§2)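 Human cancer lines seeded at 20 000–50 000 cells/ml, allowed 24 h to attach, then exposed to compounds at 10^−5 to 10^−10 M versus solvent control.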
`COc1ccc(-c2cn(C)c3cc(OC)cc(N4CCN(C)CC4)c3c2=O)cc1` [CRL8436, 7-Methoxy-3-(4-methoxyphenyl)-1-methyl-5-(1-methyl-piperazino)-1,4-dihydro-4-quinolinone] showed a viability at 10 µM of 97.2%.
`CCN(CC)c1cc(OC)cc2c1c(=O)c(-c1ccc(OC)cc1)cn2C` [CRL8437, 5-Diethylamino-7-methoxy-3-(4-methoxyphenyl)-1-methyl-1,4-dihydro-4-quinolinone] gave a viability at 10 µM of 93.2%.

Test system: HCT-15
Assay: as above
Assay type: cell-based
Details: Homo sapiens, HCT-16, 10^−5 M, 72 hours incubation, MTT, mean value, read-out: mean optical density, expressed as percentage relative to the mean optical density under the control condition (100%)
Method in brief: as §2
Work on `COc1ccc(-c2cn(C)c3cc(OC)cc(N4CCN(C)CC4)c3c2=O)cc1` [CRL8436, 7-Methoxy-3-(4-methoxyphenyl)-1-methyl-5-(1-methyl-piperazino)-1,4-dihydro-4-quinolinone] yielded a viability at 10 µM of 101%.
Molecule `CCN(CC)c1cc(OC)cc2c1c(=O)c(-c1ccc(OC)cc1)cn2C` [CRL8437, 5-Diethylamino-7-methoxy-3-(4-methoxyphenyl)-1-methyl-1,4-dihydro-4-quinolinone] has a viability at 10 µM of 110%.

Test system: A-427
Assay: as above
Assay type: cell-based
Details: Homo sapiens, 10^−5 M, 72 hours incubation, MTT, mean value, read-out: mean optical density, expressed as percentage relative to the mean optical density under the control condition (100%)
Method in brief: as §2
`COc1ccc(-c2cn(C)c3cc(OC)cc(N4CCN(C)CC4)c3c2=O)cc1` [CRL8436, 7-Methoxy-3-(4-methoxyphenyl)-1-methyl-5-(1-methyl-piperazino)-1,4-dihydro-4-quinolinone] showed a viability at 10 µM of 109%.
Work on `CCN(CC)c1cc(OC)cc2c1c(=O)c(-c1ccc(OC)cc1)cn2C` [CRL8437, 5-Diethylamino-7-methoxy-3-(4-methoxyphenyl)-1-methyl-1,4-dihydro-4-quinolinone] yielded a viability at 10 µM of 108%.

Test system: U-87MG
Assay: as above
Assay type: cell-based
Details: Homo sapiens; U-87MG; 10^−5 M; 72 hours incubation; MTT; mean value; read-out: mean optical density, expressed as percentage relative to the mean optical density under the control condition (100%)
Method in brief: as §2
Molecule `COc1ccc(-c2cn(C)c3cc(OC)cc(N4CCN(C)CC4)c3c2=O)cc1` [CRL8436, 7-Methoxy-3-(4-methoxyphenyl)-1-methyl-5-(1-methyl-piperazino)-1,4-dihydro-4-quinolinone] has a viability at 10 µM of 97.3%.
`CCN(CC)c1cc(OC)cc2c1c(=O)c(-c1ccc(OC)cc1)cn2C` [CRL8437, 5-Diethylamino-7-methoxy-3-(4-methoxyphenyl)-1-methyl-1,4-dihydro-4-quinolinone] showed a viability at 10 µM of 99.4%.

Test system: A549
Assay: as above
Assay type: cell-based
Details: Homo sapiens, 10^−5 M, 72 hours incubation, MTT, mean value, read-out: mean optical density, expressed as percentage relative to the mean optical density under the control condition (100%)
Method in brief: as §2
Molecule `COc1ccc(-c2cn(C)c3cc(OC)cc(N4CCN(C)CC4)c3c2=O)cc1` [CRL8436, 7-Methoxy-3-(4-methoxyphenyl)-1-methyl-5-(1-methyl-piperazino)-1,4-dihydro-4-quinolinone] has a viability at 10 µM of 101%.
With `CCN(CC)c1cc(OC)cc2c1c(=O)c(-c1ccc(OC)cc1)cn2C` [CRL8437, 5-Diethylamino-7-methoxy-3-(4-methoxyphenyl)-1-methyl-1,4-dihydro-4-quinolinone] the viability at 10 µM was 102%.

Test system: PC-3
Assay: as above
Assay type: cell-based
Details: Homo sapiens, 10^−5 M, 72 hours incubation, MTT, mean value, read-out: mean optical density, expressed as percentage relative to the mean optical density under the control condition (100%)
Method in brief: as §2
In the case of `COc1ccc(-c2cn(C)c3cc(OC)cc(N4CCN(C)CC4)c3c2=O)cc1` [CRL8436, 7-Methoxy-3-(4-methoxyphenyl)-1-methyl-5-(1-methyl-piperazino)-1,4-dihydro-4-quinolinone], the viability at 10 µM is reported as 99.9%.
Molecule `CCN(CC)c1cc(OC)cc2c1c(=O)c(-c1ccc(OC)cc1)cn2C` [CRL8437, 5-Diethylamino-7-methoxy-3-(4-methoxyphenyl)-1-methyl-1,4-dihydro-4-quinolinone] has a viability at 10 µM of 94.1%.

Test system: T-47D
Assay: as above
Assay type: cell-based
Details: Homo sapiens, T47D; T-47D; 10^−5 M; 72 hours incubation; MTT; mean value; read-out: mean optical density, expressed as percentage relative to the mean optical density under the control condition (100%)
Method in brief: as §2
In the case of `COc1ccc(-c2cn(C)c3cc(OC)cc(N4CCN(C)CC4)c3c2=O)cc1` [CRL8436, 7-Methoxy-3-(4-methoxyphenyl)-1-methyl-5-(1-methyl-piperazino)-1,4-dihydro-4-quinolinone], the viability at 10 µM is reported as 89.4%.
`CCN(CC)c1cc(OC)cc2c1c(=O)c(-c1ccc(OC)cc1)cn2C` [CRL8437, 5-Diethylamino-7-methoxy-3-(4-methoxyphenyl)-1-methyl-1,4-dihydro-4-quinolinone] showed a viability at 10 µM of 92.1%.

Test system: LoVo
Assay: as above
Assay type: cell-based
Details: Homo sapiens, 10^−5 M, 72 hours incubation, MTT, mean value, read-out: mean optical density, expressed as percentage relative to the mean optical density under the control condition (100%)
Method in brief: as §2
Molecule `COc1ccc(-c2cn(C)c3cc(OC)cc(N4CCN(C)CC4)c3c2=O)cc1` [CRL8436, 7-Methoxy-3-(4-methoxyphenyl)-1-methyl-5-(1-methyl-piperazino)-1,4-dihydro-4-quinolinone] has a viability at 10 µM of 108%.
For `CCN(CC)c1cc(OC)cc2c1c(=O)c(-c1ccc(OC)cc1)cn2C` [CRL8437, 5-Diethylamino-7-methoxy-3-(4-methoxyphenyl)-1-methyl-1,4-dihydro-4-quinolinone], the viability at 10 µM was 105%.

Test system: MCF7
Assay: as above
Assay type: cell-based
Details: Homo sapiens, 10^−5 M, 72 hours incubation, MTT, mean value, read-out: mean optical density, expressed as percentage relative to the mean optical density under the control condition (100%)
Method in brief: as §2
For `COc1ccc(-c2cn(C)c3cc(OC)cc(N4CCN(C)CC4)c3c2=O)cc1` [CRL8436, 7-Methoxy-3-(4-methoxyphenyl)-1-methyl-5-(1-methyl-piperazino)-1,4-dihydro-4-quinolinone], the viability at 10 µM was 96.4%.
`CCN(CC)c1cc(OC)cc2c1c(=O)c(-c1ccc(OC)cc1)cn2C` [CRL8437, 5-Diethylamino-7-methoxy-3-(4-methoxyphenyl)-1-methyl-1,4-dihydro-4-quinolinone] showed a viability at 10 µM of 97.7%.

Test system: not listed separately
Assay: Determination of the maximum tolerated dose (MTD)
Details: B6D2F1/Jico, mouse, in vivo, ip; single intraperitoneal administration, doses 2.5 to 160 mg/kg, survival over 14 days
Method in brief: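 Mice were 4- to 6-week-old B6D2F1/Jico. They received a single intraperitoneal dose of 2.5 to 160 mg/kg, and survival and body weight were followed for 14 days. MTD is given in mg/kg and is capped at 160 mg/kg by default.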
In the case of `COc1ccc(-c2cn(C)c3cc(OC)cc(N4CCN(C)CC4)c3c2=O)cc1` [CRL8436, 7-Methoxy-3-(4-methoxyphenyl)-1-methyl-5-(1-methyl-piperazino)-1,4-dihydro-4-quinolinone], the MTD at 14 day is reported as > 160 mg/kg.
With `CCN(CC)c1cc(OC)cc2c1c(=O)c(-c1ccc(OC)cc1)cn2C` [CRL8437, 5-Diethylamino-7-methoxy-3-(4-methoxyphenyl)-1-methyl-1,4-dihydro-4-quinolinone] the MTD at 14 day was > 160 mg/kg.
